Paper PMC5464344, “Analgesic and anti‐inflammatory properties of novel, selective, and potent EP4 receptor antagonists” (Pharmacology Research & Perspectives, 2017)
Where two headings read alike, the source gives them in different places.

Key:
[1] = system: PGE2 Inhibited TNFα in human whole blood; test: Human whole blood assay (Reversal of PGE2 Inhibited TNFα); assay type: cell-based; conditions: for times more potent than reference EP4 antagonists (whole blood assay): PGE2 mediated TNF-α
Method: Blood was collected from normal volunteer donors into sodium heparin vacutainer tubes. Donors had not taken glucocorticoids within 2 weeks of the donation. […] The plates were incubated for 20–24 h at 37 °C, 5% CO2, in a humidified atmosphere. […] Plasma was removed from the cell layer and was transferred to v‐bottom polypropylene plates. […] The plates were read at A450‐A650 on a plate reader (Molecular Devices Versamax) using SOFTmaxPRO (v. 4.3.I) software. IC50s were calculated using Graphpad Prism (v. 4) nonlinear regression, sigmoidal dose response curve fitting. Results are expressed as the geometric mean ± SD.

Rat EP4 = biological target: T1, Rat EP4 (Rattus norvegicus, UniProt P43114); test: EP4 cAMP antagonist assay (HTRF), rat EP4; assay type: cell-based; conditions: read-out: cAMP Antagonism Rat EP4 IC50
T1 construct: expressed in transfected cells
Method: Human EP4 (GenBank Accession # AY429109, Clone ID PER0400000, UMR cDNA Resource Center, Rolla, MO) was stably expressed in HEK293 cells. Rat EP4 cDNA (GenBank Accession# NM_03276) was cloned into pcDNA 3.1 vector and stably transfected into HEK293 cells. The cell lines were maintained in DMEM (invitrogen) supplemented with 10% fetal bovine serum (FBS), 1 mmol/L sodium pyruvate, 10 mmol/L HEPES, 500 μg/mL geneticin and 2 mmol/L L‐glutamine. Confluent cultures were grown at 37°C in an atmosphere containing 5% CO2. Cells were harvested using 0.25% Trypsin‐ EDTA, suspended in freeze media at a density of 10^7cel1s/mL, and aliquots were stored in liquid nitrogen. Immediately prior to the assay, cells were thawed with DMEM and suspended in cAMP assay buffer (HBSS with 0.1% BSA, 20 mmol/L HEPES and 200 μmol/L IBMX).
CJ‐023,423 served as the positive control. To measure the cAMP levels, cAMP‐d2 conjugate and anti cAMP‐cryptate conjugate in lysis buffer were incubated with the treated cells at room temperature for 1 h. The HTRF signal was detected using an EnVision plate reader (Perkin‐Elmer, Inc., Waltham, MA, USA.) to calculate the ratio of fluorescence at 665 to 620 nm. The raw data were converted to cAMP (nmol/L) using a cAMP standard curve generated for each experiment. Data were analyzed using a 4‐parameter nonlinear logistic equation. Results are expressed as the geometric mean ± standard deviation or geometric mean ± standard error as noted.

Human EP4 = Human EP4 (Homo sapiens, UniProt P35408); test: [3H]-PGE2 receptor binding assay, EP4 membranes; set-up: expressed in transfected cells; membrane preparation; conditions: HEK293 membranes, geometric mean ± SEM, read-out: hEP1-4 receptor binding EP4 Ki
Method: (§1) Receptor binding assays were done using membrane preparations of HEK 293 cells transfected with various prostanoid receptors using previously published procedure (Nakao et al. 2007). EP1 and EP4 membranes were prepared from recombinant HEK293 cells stably expressing human EPl receptor (GenBank Accession # AY275470, Clone ID PER0100000, UMR cDNA Resource Center, Rolla, MO) or human EP4 receptor. EP2 and EP3 membranes were prepared from HEK293 cells transiently transfected with human EP2 receptor (GenBank Accession # AY275471, Clone ID PER0200000, UMR cDNA Resource Center, Rolla, MO) or human EP3 receptor (GenBank Accession # AY429108, Clone ID PER3VI0000, UMR cDNA Resource Center, Rolla, MO) plasmids. Frozen cell pellets were homogenized in homogenization buffer (10 mmol/L Tris‐HCl, pH7.4, 250 mmol/L sucrose, 1 mmol/L EDTA, 0.3 mmol/L indomethacin and protease inhibitor cocktail with EDTA (Roche Molecular Biochemicals, catalog # 1691498)) using a Teflon/glass homogenizer. After a low speed centrifugation (200g for 15 min at 4°C) the supernatant was subjected to high speed centrifugation (30,000g for 60 min at 4°C). Membrane protein preparation was aliquoted and quick frozen on dry ice prior to storage at −80°C. […] Compounds were tested in a 96‐well format using a three‐fold dilution series to generate 10‐point curves. […] The binding reaction was performed in 200 μL MES buffer (10 mmol/L MES, pH 6.0, 10 mmol/L MgCl2, and l mmol/L EDTA) using polystyrene 96‐well plates. […] The membranes were harvested by filtration (TomTek harvester), washed four times with cold buffer (10 mmol/L MES, pH 6.0, 10 mmol/L MgCl2), dried in a 60°C oven, and the radioactivity was quantified as counts per min (CPM) using a TopCount detector. […] Data were analyzed using a 4‐parameter nonlinear logistic equation. K i Conversion from IC50 Values (K i = […] where [L] is the ligand concentration). Results are expressed as the geometric mean ± standard deviation or geometric mean ± standard error as noted.

human EP3 receptor = biological target: T2, human EP3 receptor (Homo sapiens, UniProt P43115); test: [3H]-PGE2 receptor binding assay, EP3 membranes; conditions: HEK293 membranes, geometric mean ± SEM, read-out: hEP1-4 receptor binding EP3 Ki
T2 sequence (P43115 1-359 limits assumed): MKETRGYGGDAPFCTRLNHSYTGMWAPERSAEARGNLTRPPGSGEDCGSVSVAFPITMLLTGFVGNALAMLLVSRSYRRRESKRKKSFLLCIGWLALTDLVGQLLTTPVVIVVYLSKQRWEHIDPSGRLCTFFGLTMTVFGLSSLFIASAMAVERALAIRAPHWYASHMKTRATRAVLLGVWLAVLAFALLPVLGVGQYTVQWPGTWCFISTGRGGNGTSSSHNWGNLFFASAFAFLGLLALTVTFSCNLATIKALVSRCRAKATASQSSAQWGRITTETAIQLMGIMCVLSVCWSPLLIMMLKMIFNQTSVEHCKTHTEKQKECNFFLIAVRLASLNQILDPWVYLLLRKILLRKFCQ
Method: as §1

human EP2 receptor = biological target: T3, human EP2 receptor (Homo sapiens, UniProt P43116); test: [3H]-PGE2 receptor binding assay, EP2 membranes
T3 construct: host or cells: HEK293, transient; membrane preparation
Method: as §1

[2] = HEK293 membranes, [3H]-PGE2, geometric mean ± SEM, read-out: hEP1-4 receptor binding EP2 Ki

T3 sequence (P43116 whole entry): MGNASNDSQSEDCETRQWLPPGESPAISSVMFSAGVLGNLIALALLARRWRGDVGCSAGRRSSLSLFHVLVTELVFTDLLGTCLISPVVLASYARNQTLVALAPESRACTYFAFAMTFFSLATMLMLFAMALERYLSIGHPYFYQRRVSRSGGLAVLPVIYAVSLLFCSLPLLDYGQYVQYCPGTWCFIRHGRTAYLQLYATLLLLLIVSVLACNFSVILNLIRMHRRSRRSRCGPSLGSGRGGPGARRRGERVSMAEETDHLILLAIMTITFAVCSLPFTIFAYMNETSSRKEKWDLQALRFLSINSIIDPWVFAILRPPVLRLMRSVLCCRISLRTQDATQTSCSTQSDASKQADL
Human EP4, sequence (P35408 whole entry): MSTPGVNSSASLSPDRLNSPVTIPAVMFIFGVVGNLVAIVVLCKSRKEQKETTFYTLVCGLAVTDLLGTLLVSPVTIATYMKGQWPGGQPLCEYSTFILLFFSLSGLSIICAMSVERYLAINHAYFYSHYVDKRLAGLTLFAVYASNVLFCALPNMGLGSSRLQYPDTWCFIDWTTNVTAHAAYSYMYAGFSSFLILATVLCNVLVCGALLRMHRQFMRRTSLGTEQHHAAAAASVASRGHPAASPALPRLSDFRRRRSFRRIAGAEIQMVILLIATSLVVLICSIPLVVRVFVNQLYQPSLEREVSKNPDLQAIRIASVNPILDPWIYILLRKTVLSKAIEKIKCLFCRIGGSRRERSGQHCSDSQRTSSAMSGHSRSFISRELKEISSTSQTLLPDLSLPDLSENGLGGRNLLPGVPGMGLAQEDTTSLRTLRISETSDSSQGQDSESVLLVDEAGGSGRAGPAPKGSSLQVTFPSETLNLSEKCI
T1 sequence (P43114 whole entry): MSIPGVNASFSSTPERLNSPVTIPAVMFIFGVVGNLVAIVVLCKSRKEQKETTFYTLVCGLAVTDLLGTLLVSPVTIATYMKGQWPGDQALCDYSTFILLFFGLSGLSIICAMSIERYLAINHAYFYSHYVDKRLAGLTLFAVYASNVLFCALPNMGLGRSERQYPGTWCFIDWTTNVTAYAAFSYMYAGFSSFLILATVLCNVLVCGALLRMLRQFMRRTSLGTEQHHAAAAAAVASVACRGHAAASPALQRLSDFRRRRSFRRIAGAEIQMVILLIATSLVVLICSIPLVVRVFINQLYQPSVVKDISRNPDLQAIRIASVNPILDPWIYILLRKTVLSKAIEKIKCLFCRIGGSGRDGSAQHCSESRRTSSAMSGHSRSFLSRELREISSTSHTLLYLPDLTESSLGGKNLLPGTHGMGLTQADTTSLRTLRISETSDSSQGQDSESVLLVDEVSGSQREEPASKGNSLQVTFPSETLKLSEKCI

IC50 ([1]; read-out: Human whole blood (Reversal of PGE2 Inhibited TNFα) IC50, 10 μg/ml LPS + 10 nmol/L PGE2, 20–24 h, geometric mean ± SD) [nM]	IC50 (Rat EP4) [nM]	Ki (Human EP4) [nM]	Ki (human EP3 receptor) [µM]	Ki (human EP2 receptor; [2]) [nM]	Structure (SMILES)	times more potent than reference EP4 antagonists (whole blood assay) ([1]; human whole blood)	Ki (human EP2 receptor; read-out: Ki for EP2 receptor) [nM]	reversal of PGE2 suppression of LPS stimulated TNF‐α production ([1]; human whole blood, various concentrations (Fig. 5A))
123 ± 80	12.3	58 ± 12	–	–	Cc1ccc(N2CCC(O)CC2)nc1C(=O)Nc1c(C)cc(C(=O)O)cc1C [Compound 1]	5–10 times	–	–
–	1	2.07 ± 1.31	> 14	> 18900	Cc1ccc(-c2cccc(CO)c2)nc1C(=O)Nc1c(C)ccc(C(=O)O)c1C [Compound 3]	–	–	–
–	20.6 ± 1.8	12.6 ± 7.36	> 15.5	931 ± 457	C[C@H](NC(=O)c1cc(Cl)ccc1Oc1ccc(F)cc1)c1ccc(C(=O)O)cc1 [CJ‐042,794, reference compound]	–	–	reversed

Structure (SMILES)	IC50 ([1]; read-out: Human whole blood (Reversal of PGE2 Inhibited TNFα) IC50, 10 μg/ml LPS + 10 nmol/L PGE2, 20–24 h, geometric mean ± SD) [nM]	IC50 (Rat EP4) [nM]	Ki (Human EP4) [nM]	Ki (human EP3 receptor) [µM]	Ki (human EP2 receptor; [2]) [nM]	times more potent than reference EP4 antagonists (whole blood assay) ([1]; human whole blood)	Ki (human EP2 receptor; read-out: Ki for EP2 receptor) [nM]	reversal of PGE2 suppression of LPS stimulated TNF‐α production ([1]; human whole blood, various concentrations (Fig. 5A))
C[C@H](NC(=O)[C@H]1CCCCN1CCOc1ccccc1)c1ccc(C(=O)O)cc1 [Compound 2]	–	15.4	–	> 14	1210 ± 509	5–10 times	1200	–
